In ChEMBL document CHEMBL1201862, “PubChem BioAssay data set” (2004):
Activity calls are given as the source filed them.

Experiments:
Type in all cases: functional
[1] = target: T1, Carboxy-terminal domain RNA polymerase II polypeptide A small phosphatase 1 (Homo sapiens, UniProt Q9GZU7); assay: CTDSP1 inhibitors, concentration-response, biochemical, absorbance readout, ultra-high-throughput screen actives (AID 540297)
T1 sequence (Q9GZU7 whole entry): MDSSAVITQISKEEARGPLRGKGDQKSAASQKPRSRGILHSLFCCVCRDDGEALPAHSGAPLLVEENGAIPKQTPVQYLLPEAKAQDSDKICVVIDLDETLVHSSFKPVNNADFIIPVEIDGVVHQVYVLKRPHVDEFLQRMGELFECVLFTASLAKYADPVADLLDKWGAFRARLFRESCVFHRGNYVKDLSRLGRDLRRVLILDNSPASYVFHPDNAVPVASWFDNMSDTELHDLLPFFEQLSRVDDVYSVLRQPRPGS

[2] = target: T2, Low molecular weight phosphotyrosine protein phosphatase (Homo sapiens, UniProt P24666); settings: read-out: IC50_Mean
T2 sequence (P24666 whole entry): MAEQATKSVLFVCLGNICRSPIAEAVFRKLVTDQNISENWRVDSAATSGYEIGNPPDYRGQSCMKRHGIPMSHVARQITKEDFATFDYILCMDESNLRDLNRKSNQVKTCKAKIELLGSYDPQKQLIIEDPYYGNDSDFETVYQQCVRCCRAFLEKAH

[3] = target: T2, Low molecular weight phosphotyrosine protein phosphatase; settings: read-out: IC50_Mean; remark: listed apart in the source
[4] = activation of miR-122 Renilla sensor silencing – cell-based, Huh7 psiCHECK-miR122, Renilla luciferase, cherry-picked, dose response (AID 651956);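 also: huh7 hepatoma cells stably carrying a psiCHECK-2 miR-122 sensor plasmid; renilla luciferase signal reporting endogenous miR-122 activity after 48 h compound exposure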
[5] = target: T3, Tyrosine-protein phosphatase non-receptor type 11 (Homo sapiens, UniProt Q06124); assay: PTPN11 enzyme inhibitors – biochemical, selectivity assay for STEP inhibitor project, dose response (AID 602367); settings: read-out: IC50_Mean
T3 sequence (Q06124 whole entry): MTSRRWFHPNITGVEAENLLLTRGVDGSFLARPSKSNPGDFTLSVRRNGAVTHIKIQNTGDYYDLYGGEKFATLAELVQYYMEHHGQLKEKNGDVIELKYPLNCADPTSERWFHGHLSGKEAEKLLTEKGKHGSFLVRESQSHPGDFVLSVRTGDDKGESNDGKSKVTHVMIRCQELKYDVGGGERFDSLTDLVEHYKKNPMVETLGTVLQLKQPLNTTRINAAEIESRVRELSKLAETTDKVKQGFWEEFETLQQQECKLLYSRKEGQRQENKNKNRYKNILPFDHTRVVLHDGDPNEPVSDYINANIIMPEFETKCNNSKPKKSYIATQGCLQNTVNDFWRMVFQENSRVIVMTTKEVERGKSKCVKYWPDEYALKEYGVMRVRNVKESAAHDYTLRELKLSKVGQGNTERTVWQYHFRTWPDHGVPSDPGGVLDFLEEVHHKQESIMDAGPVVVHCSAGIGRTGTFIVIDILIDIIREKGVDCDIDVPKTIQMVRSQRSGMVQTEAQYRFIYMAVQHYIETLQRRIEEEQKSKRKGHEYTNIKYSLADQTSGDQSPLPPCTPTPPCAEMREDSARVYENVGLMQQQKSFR

[6] = target: Dual specificity protein phosphatase 3 (Homo sapiens, UniProt P51452); assay: VHR phosphatase inhibition, dose response, selectivity assay for STEP inhibitor project, biochemical (AID 602374); settings: read-out: IC50_Mean
Sequence of Dual specificity protein phosphatase 3 (P51452 whole entry): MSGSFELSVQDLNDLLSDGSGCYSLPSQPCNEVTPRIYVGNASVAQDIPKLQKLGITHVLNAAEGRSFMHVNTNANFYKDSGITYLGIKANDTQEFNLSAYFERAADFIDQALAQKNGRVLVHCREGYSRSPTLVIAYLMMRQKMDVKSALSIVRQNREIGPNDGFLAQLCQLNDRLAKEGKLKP

[7] = target: T4, Tyrosine-protein phosphatase non-receptor type 5 (Homo sapiens, UniProt P54829); assay: PTPN5 enzyme inhibition – biochemical, fluorescence intensity, uHTS hits, confirmation (AID 602372); settings: read-out: IC50_Mean
T4 sequence (P54829 whole entry): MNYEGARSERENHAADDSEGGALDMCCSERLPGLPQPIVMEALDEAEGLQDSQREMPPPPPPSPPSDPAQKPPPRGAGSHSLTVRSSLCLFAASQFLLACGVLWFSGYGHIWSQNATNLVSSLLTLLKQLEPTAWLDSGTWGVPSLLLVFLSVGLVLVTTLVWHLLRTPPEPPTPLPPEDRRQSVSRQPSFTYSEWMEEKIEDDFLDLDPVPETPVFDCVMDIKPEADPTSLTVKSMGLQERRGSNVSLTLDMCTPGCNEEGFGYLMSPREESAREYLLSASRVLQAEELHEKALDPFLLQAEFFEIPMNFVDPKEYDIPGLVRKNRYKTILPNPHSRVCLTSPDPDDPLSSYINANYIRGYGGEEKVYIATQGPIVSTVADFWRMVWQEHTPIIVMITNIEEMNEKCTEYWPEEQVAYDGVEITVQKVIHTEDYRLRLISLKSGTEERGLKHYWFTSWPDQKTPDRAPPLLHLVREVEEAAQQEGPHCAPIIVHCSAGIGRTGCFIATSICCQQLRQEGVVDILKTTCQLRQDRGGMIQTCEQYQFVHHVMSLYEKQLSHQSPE

[8] = viability loss in THP-1 monocytes – THP-1 cells, cytotoxicity control for Vif-APOBEC3G degradation inhibitor project, dose response (AID 1117359); settings: THP-1
[9] = tested on: INS1; assay: INS-1E survival protection against cytokine death – cell-based, luminescence, retest, dose response (AID 449756); settings: Rattus norvegicus;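 also: cell death triggered by IL-1 beta plus TNF-alpha plus IFN-gamma mixture; protective hits raise ATP signal compared with cytokine alone wells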
[10] = viability loss in HeLa cells – cytotoxicity control for MgcRacGAP inhibitor project, dose response (AID 624300)
[11] = target: T5, Rac GTPase-activating protein 1 (Homo sapiens, UniProt Q9H0H5); assay: blockers of MgcRacGAP-driven Rac1 GTP hydrolysis – biochemical, ADP Hunter fluorescence, primary and confirmatory, confirmation (AID 624330)
T5 sequence (Q9H0H5 whole entry): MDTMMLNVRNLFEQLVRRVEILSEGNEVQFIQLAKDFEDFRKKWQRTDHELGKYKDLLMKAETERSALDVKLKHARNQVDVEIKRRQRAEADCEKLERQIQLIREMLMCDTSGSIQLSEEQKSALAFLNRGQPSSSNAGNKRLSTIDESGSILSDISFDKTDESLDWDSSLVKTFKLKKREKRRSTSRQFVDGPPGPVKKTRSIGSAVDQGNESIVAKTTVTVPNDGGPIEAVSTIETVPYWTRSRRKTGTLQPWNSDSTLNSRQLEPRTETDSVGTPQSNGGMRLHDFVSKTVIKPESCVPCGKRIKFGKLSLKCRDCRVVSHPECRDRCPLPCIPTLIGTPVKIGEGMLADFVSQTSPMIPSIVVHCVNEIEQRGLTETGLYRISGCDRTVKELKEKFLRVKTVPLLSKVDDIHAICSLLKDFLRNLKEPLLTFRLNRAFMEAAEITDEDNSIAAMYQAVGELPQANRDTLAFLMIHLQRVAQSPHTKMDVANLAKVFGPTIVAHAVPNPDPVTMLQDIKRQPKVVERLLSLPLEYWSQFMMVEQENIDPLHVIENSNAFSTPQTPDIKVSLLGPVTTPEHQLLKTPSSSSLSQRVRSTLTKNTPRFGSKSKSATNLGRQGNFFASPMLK

IC50 [1]	Structure (SMILES)	IC50 [2]	IC50 [3]	IC50 [5]	IC50 [6]	IC50 [7]	other results
1.8 µM (active)	O=C(N/N=C/c1ccc(OC(=O)c2ccc3c(c2)OCO3)cc1)c1cncc(Br)c1	1.82 µM (active)	6.29 µM (active)	–	–	–	–
–	C[C@@H]1CN([C@H](C)CO)S(=O)(=O)c2ccc(C#CC3(O)CCCC3)cc2O[C@@H]1CN(C)C(=O)c1cccnc1	–	–	–	–	–	AC50 [4]: 9.98 µM (active)
–	NN=C1C(Cl)=C(Cl)C(Cl)=C1Cl	38.7 µM (inactive)	7.19 µM (active)	1.45 µM (active)	1.99 µM (active)	> 80 µM (inactive)	CC50 [8]: > 40 µM (active)
4.72 µM (active)	Cc1c(CC(=O)NCCCCCC(=O)O)c(=O)oc2c(C)c3oc4c(c3cc12)CCCC4	–	–	5.36 µM (active)	3.9 µM (active)	36.4 µM (inactive)	–
–	COc1ccc(Br)cc1CN1CCN(Cc2c[nH]c3ccccc23)CC1	–	–	–	–	–	AC50 [9]: 6.6 µM (active); CC50 [10]: 79.4 µM (active); IC50 [11]: 86 µM (active)
